This is an account of results in patent US20210128500A1, “Methods of Treating Conditions Associated with Leaky Gut Barrier” (The Regents of the University of California, priority 2017, published 2021).

The AC50 is the midpoint of the concentration-response curve, whichever way the signal moves.

The subject of one test is DSS-induced colitis. In words: DSS-induced colitis (FIGS. 20A-20E). The class given is in vivo. Conditions: activation of AMPK with A769662.
The test system of test [1] is AMPK 32-subunit-containing isoforms. Description: AMPK activation by A769662, 32-subunit-containing isoforms (FIG. 18). The class given is biochemical.
Another test concerns the target AMPK α1β1γ1 (Homo sapiens, UniProt Q13131+Q9Y478). In words: AMPK activation by A769662, α1β1γ1 isoform (fold activation, FIG. 18). The class given is biochemical. Conditions: estimated.
Test [2] concerns enteroid-derived monolayers (EDMs). In words: TEER across enteroid-derived monolayers challenged with E. coli K12 (FIG. 4B). The class given is cell-based, mouse and human. Conditions: Metformin pre-treatment 1 μM, 18 h; E. coli K12 challenge 8 h. As for the experimental part:
(§1) In FIG. 4B, TEER was measured across EDMs that were pre-treated or not with Metformin (1 μM, 18 h) prior to challenge with E. coli K12 strain for 8 h. Drop in TEER (Y axis) is plotted. A representative experiment is shown. […] Activation of the AMPK→GIV stress polarity axis was monitored using pS245GIV (red). […] Arrowheads=separation of TJs and loss of pS245GIV.
(§2) Detailed Methods: Isolation of enteroids and generation of enteroid-derived monolayers (EDM): Crypts are isolated from human colonic biopsies by digesting tissue with Collagenase type I (2 mg/ml; Invitrogen), filtered with a cell strainer and washed with medium (DMEM/F12 with HEPES, 10% FBS), as outlined before. The epithelial units are suspended in […] (BD basement membrane matrix). Cell-[…] suspension (15 μl) are placed at the center of the 24-well plate on ice and placed on the incubator upside-down for polymerization (as shown in FIG. 4A). After 10 min, 500 μl of 50% conditioned media (prepared from L-WRN cells with Wnt3a, R-spondin and Noggin) containing 10 μM Y27632 (ROCK inhibitor) and 10 μM SB431542 (an inhibitor for TGF-β type I receptor) is added to the suspension. The medium is changed every 2 days and the enteroids are expanded and frozen in liquid nitrogen. To prepare EDMs, single cells from enteroids in 5% conditioned media are added to diluted […] (1:30) as done before. […]

The test system of the next test is high-fat fed mice. Conditions: cited from earlier work.
Test [3] has as its system enteroid-derived monolayers (EDMs). Description: Tight junction integrity by occludin / pS245GIV staining in EDMs challenged with E. coli (FIG. 4C). The class given is cell-based, mouse and human. Conditions: Metformin pre-treatment 1 μM, 18 h; E. coli K12 8 h. As for the experimental part:
as §1, §2

The subject of another test is AMPK→pS245GIV axis. In words: Activity of the AMPK→pS245GIV axis in human EDMs from non-diseased aged colons. The class given is cell-based.
The subject of the next test is CLDN2. In words: CLDN2 biomarker in response to IBD-associated microbes (FIG. 15). The class given is cell-based.
Test [4] deals with Mouse intestine-derived EDMs. Description: Tight junction integrity by occludin / pS245GIV staining in EDMs exposed to LPS or H2O2 (FIG. 5). The class given is cell-based. Conditions: 1 μM Metformin. As for the experimental part: Mouse intestine-derived EDMs were exposed to indicated amounts of LPS (top) or H2O2 (bottom) after treating them or not with 1 μM Metformin. Fixed monolayers were assessed for TJs by staining for occludin (a TJ marker; green grey scales). Activation of the AMPK→GIV stress polarity axis was monitored using pS245GIV (red grey scales). […] TEER measurements agree with IF findings (not shown).

“Also recorded” adds a separate entry of the source.

AMPK α1β1γ1, sequence (Q13131 whole entry, canonical isoform): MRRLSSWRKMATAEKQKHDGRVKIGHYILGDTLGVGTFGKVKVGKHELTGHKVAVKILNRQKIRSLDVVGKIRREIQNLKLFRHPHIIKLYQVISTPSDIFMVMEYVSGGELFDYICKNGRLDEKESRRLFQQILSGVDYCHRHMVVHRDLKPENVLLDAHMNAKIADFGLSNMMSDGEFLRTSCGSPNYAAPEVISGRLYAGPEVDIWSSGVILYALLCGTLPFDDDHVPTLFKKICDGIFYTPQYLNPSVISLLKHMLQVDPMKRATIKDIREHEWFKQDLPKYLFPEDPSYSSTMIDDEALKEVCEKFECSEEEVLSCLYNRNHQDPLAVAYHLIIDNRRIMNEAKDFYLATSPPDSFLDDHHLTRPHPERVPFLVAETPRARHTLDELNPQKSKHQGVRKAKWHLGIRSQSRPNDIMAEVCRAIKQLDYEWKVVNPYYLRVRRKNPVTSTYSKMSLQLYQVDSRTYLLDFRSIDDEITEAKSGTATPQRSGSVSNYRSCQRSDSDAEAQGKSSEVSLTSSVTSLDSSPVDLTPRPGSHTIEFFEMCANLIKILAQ
AMPK α1β1γ1, sequence (Q9Y478 whole entry, canonical isoform): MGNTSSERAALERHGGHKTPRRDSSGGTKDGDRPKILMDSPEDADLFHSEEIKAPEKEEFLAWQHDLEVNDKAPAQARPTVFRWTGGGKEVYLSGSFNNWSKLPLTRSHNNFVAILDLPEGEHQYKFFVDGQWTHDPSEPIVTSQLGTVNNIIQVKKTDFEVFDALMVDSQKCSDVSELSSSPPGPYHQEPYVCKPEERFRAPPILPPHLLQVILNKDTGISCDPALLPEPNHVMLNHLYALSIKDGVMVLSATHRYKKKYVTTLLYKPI
AMPK α1β1γ1, sequence (P54619 whole entry partner, canonical isoform): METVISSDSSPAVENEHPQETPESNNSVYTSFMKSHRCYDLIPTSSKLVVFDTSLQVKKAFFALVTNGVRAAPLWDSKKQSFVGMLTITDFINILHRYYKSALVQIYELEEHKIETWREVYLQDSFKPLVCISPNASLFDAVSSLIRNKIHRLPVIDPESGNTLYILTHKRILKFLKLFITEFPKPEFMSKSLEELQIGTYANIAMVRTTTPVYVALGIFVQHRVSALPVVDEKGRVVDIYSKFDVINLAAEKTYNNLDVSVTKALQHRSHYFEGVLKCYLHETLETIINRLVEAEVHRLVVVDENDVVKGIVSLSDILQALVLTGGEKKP

On to `N#Cc1c(O)c2c(-c3ccc(-c4ccccc4O)cc3)csc2[nH]c1=O` [A769662], for which, in the test on DSS-induced colitis, the colon length result is given as “preserves colon length” and the “healing of colonic mucosa” value is listed as “heals colonic mucosa”. The AC50 in test [1] was above 40000 nM. For the same compound, the AC50 on AMPK α1β1γ1 was 72.2 nM.

Take `CN(C)C(=N)N=C(N)N` [Metformin]: the “Drop in TEER” value in [2] was “significantly reduced the drop in TEER”. Further, in the test on high-fat fed mice, the endotoxemia entry was “attenuates endotoxemia”, the gut barrier integrity entry is reported as “enhances gut barrier integrity” and the insulin signaling entry is listed as “enhances insulin signaling”. In addition, the “TJ preservation (occludin pattern)” value in test [3] is recorded as “TJs were better preserved; also recorded: protects TJs against stress-induced collapse”. The “activity of the AMPK→pS245GIV axis” value in the test with AMPK→pS245GIV axis is given as “can be increased”. For the same compound, the “increase in the CLDN2 biomarker” value with CLDN2 is “prevents the increase”. Moreover, the “TJ preservation (occludin pattern)” value in test [4] (H2O2 stress) is on record as “TJs were better preserved; also recorded: protects TJs against stress-induced collapse”. Also, the “TJ preservation (occludin pattern)” value in test [4] (LPS stress) was “TJs were better preserved; also recorded: protects TJs against stress-induced collapse”.
